Literature values, collected in US20240398886A1, “EFFECTIVE EYELID, FACE, HEAD AND BODY CLEANSER” (priority 2023, published 2024).

What was measured:
[1] = humans and warm-blooded vertebrates; refs (12, 13)
[2] = mammals; refs (12, 13)

SMILES: C/C=C(\C)C(=O)O[C@H]1C[C@@H](OC(C)=O)[C@@]2(C(=O)OC)CO[C@H]3[C@@H](O)[C@@](C)([C@]45O[C@@]4(C)[C@H]4C[C@@H]5O[C@@H]5OC=C[C@@]54O)[C@H]4[C@]1(CO[C@]4(O)C(=O)OC)[C@@H]32 [Azadirachtin]
- toxicity [1]: non-toxic
- genotoxicity [2]: without genotoxicity
